The values below come from patent publication US20140135310A1, “SULPHONAMIDE DERIVATIVES OF ALICYCLIC AMINES FOR THE TREATMENT OF CENTRAL NERVOUS SYSTEM DISEASES” (Adamed Sp. z o.o., priority 2011, published 2014).

Broadly, the inhibition is the drop in the measured response relative to a control, in per cent.

The target in assay [1] is T1, 5-HT1A receptor (rat hippocampus) (Rattus norvegicus, UniProt P19327).
T1 construct: hippocampus; from tissue; host or cells: rat hippocampus
T1 sequence (P19327 1-422): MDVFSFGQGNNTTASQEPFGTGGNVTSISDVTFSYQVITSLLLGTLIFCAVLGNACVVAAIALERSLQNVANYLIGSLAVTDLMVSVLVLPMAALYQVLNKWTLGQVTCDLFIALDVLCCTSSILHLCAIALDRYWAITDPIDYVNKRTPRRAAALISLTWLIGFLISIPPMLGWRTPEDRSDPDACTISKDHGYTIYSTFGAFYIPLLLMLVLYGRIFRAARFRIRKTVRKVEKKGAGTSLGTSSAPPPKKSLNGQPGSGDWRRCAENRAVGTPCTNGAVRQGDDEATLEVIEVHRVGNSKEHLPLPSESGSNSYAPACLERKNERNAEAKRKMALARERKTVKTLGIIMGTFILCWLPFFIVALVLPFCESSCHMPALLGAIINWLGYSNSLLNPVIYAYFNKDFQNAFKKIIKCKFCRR
Kind of assay: Radioligand binding assay, serotoninergic 5-HT1A receptors.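 Also: test compound at 1 µM.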 Particulars: binding assay result in %, Table 5a.

The target in the next assay is T2, 5-HT7 receptor (Homo sapiens, UniProt P34969).
T2 construct: purchased PerkinElmer
T2 sequence (P34969 whole entry): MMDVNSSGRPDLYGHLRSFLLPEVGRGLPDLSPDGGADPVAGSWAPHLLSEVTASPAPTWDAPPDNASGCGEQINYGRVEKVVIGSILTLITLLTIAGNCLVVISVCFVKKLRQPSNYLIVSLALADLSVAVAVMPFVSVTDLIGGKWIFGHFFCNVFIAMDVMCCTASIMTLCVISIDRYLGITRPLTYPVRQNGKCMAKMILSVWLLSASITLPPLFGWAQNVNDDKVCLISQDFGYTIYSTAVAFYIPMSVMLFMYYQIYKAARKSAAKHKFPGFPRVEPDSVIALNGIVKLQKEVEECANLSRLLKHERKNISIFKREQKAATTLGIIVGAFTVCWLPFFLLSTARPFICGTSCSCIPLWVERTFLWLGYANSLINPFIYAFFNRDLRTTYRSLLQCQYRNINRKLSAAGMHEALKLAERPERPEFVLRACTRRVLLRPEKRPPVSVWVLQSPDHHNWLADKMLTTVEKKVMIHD
Kind of assay: Radioligand binding assay, serotoninergic 5-HT7 receptors.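 Also: test compound at 1 µM.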 The following applies: binding assay result in %, Table 5a. An outline of the steps:
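Ki values used the Cheng–Prusoff equation, with KD from Scatchard analysis, applied to IC50 from Hill fits of human 5-HT7 radioligand competition curves. Bound radioligand was counted by scintillation, and excess unlabelled ligand set the non-specific binding.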

The next assay addresses T3, 5-HT6 receptor (Homo sapiens, UniProt P50406).
T3 construct: purchased PerkinElmer
In words: Radioligand binding assay, serotoninergic 5-HT6 receptors.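 Also: test compound at 1 µM.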 The following applies: binding assay result in %, Table 5a. A digest of the protocol: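 Values are Ki from Cheng–Prusoff, taking IC50 from Hill nonlinear regression of competition curves and KD from a Scatchard plot. Specific binding was total minus binding with excess unlabelled ligand. Radioligand displacement was detected by scintillation counting, and data were also reported as percent of control specific binding.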

The target in assay [2] is dopaminergic receptors D3 (Homo sapiens, UniProt P35462). Kind of assay: Radioligand binding assay, dopaminergic D3 receptors. Particulars: test compound 1×10^−6 M. A digest of the protocol: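 Scintillation read-out. Specific = total − nonspecific (excess cold ligand). Data as % of control specific binding / % inhibition; IC50 by Hill fit; Ki = IC50/(1+L/KD), KD from Scatchard plot.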
dopaminergic receptors D3, sequence (P35462 whole entry): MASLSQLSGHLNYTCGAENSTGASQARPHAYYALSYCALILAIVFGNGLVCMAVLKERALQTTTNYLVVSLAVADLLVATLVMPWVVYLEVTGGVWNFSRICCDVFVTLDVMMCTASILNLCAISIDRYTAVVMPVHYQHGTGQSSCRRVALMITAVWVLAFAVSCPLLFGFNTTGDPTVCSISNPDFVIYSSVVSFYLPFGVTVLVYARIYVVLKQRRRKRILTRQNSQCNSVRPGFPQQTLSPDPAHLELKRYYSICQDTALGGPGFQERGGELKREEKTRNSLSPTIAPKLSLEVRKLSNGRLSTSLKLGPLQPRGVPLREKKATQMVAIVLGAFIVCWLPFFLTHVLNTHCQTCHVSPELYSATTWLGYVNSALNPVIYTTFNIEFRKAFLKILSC

In assay [3] the target is T4, serotonin transporter (SERT) (Homo sapiens, UniProt P31645).
T4 construct: expressed in transfected cells; host or cells: CHO cells
T4 sequence (P31645 whole entry): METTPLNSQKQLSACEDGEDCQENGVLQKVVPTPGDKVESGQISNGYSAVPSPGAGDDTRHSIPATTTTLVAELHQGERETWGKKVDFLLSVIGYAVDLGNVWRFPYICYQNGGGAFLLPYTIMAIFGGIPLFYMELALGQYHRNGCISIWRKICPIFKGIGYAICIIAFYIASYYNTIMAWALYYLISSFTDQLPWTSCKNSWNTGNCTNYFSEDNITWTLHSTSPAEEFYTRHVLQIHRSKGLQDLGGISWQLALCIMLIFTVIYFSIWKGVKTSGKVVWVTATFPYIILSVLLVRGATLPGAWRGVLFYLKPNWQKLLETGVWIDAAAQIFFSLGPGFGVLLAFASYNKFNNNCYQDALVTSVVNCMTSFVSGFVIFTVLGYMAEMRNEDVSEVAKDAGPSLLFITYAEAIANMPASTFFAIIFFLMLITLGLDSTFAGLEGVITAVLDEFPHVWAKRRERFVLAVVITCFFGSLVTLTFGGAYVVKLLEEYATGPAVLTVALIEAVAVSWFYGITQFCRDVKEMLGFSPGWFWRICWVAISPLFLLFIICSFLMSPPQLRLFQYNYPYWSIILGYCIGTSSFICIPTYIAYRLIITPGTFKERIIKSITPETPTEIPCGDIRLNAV
In words: Radioligand binding assay, serotonin transporter (SERT). The following applies: binding assay, test compound 1×10^−6 M. A digest of the protocol: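 Values are derived from competition curves fitted by the Hill equation to give IC50, then converted to Ki by Cheng-Prusoff with radioligand Kd from Scatchard analysis. Specific binding equals total minus non-specific (excess cold ligand), counted by scintillation, and is also expressed as percent inhibition of control.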

For assay [4], the target named is dopaminergic receptors D2 (Homo sapiens, UniProt P14416). Kind of assay: Radioligand binding assay, dopaminergic D2 receptors. Particulars: binding assay, test compound 1×10^−6 M. A digest of the protocol: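 Values derive from competition curves: percent inhibition of control specific binding was fitted by Hill non-linear regression for IC50, and Ki calculated with Cheng–Prusoff from radioligand concentration and KD (Scatchard). Bound ligand was detected by scintillation counting.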
dopaminergic receptors D2, sequence (P14416 whole entry): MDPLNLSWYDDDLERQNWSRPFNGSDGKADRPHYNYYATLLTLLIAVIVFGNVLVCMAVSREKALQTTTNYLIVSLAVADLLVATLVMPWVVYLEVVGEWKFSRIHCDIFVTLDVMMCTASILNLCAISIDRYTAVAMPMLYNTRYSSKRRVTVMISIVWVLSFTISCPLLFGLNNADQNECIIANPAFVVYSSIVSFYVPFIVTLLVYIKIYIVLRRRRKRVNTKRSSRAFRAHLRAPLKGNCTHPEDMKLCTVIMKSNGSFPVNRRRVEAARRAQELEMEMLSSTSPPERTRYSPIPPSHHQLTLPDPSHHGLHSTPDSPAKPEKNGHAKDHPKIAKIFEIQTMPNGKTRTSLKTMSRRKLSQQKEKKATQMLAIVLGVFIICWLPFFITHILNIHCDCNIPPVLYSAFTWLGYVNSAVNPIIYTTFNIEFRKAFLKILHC

A further assay has as its target T5, 5-HT2A receptor (Homo sapiens, UniProt P28223).
T5 construct: purchased PerkinElmer
In words: Radioligand binding assay, serotoninergic 5-HT2A receptors. The following applies: binding assay result in %, Table 5a. A digest of the protocol:
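Competition curves from scintillation-counted specific binding (total minus binding with excess unlabelled ligand) were Hill-fitted to give IC50, converted to Ki via Cheng-Prusoff using Scatchard-derived Kd.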

Assay [5] concerns α1 adrenergic receptors (rat cerebral cortex). Kind of assay: Radioligand binding assay, adrenergic α1 receptors. The following applies: test compound 1×10^−6 M. An outline of the steps:
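Values derive from radioligand displacement, with non-specific binding defined by excess cold ligand and detection by scintillation. Hill-fit IC50s were converted to Ki via Cheng-Prusoff using Scatchard-derived Kd; percent inhibition of control specific binding also reported.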

T5 sequence (P28223 whole entry): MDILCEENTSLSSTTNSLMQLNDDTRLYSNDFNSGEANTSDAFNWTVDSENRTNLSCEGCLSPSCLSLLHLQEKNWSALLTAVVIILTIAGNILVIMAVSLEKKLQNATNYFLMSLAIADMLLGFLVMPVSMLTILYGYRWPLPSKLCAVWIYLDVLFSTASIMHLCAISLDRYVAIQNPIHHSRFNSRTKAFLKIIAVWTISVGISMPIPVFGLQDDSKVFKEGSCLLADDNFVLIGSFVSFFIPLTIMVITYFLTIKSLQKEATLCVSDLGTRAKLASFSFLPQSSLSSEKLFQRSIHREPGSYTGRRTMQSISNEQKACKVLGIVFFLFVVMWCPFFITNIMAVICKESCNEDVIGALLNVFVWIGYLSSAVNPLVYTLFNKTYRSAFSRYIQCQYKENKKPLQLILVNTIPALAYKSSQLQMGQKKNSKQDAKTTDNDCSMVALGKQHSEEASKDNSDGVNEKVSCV
T3 sequence (P50406 whole entry): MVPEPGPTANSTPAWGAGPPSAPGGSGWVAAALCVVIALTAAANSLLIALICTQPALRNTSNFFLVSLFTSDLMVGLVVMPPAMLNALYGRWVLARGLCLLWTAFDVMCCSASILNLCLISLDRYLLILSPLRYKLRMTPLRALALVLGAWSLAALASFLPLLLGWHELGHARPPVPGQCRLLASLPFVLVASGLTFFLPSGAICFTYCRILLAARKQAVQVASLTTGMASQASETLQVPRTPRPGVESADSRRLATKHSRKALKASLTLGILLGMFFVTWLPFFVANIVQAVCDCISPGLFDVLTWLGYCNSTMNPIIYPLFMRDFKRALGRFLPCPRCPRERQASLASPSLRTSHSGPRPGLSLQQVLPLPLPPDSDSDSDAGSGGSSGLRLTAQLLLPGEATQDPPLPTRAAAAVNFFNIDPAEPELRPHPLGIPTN

`O=S(=O)(NCC1CN(CCOc2cccc3ccccc23)C1)c1cc2ccccc2s1` [Compound 163, N-[[1-[2-(1-Naphthyloxy)ethyl]azetidin-3-yl]methyl]benzothiophene-2-sulphonamide]: the inhibition at 1 µM in assay [1] was determined as 88%; at 5-HT7 receptor, 88%; at 5-HT6 receptor it was 87%; in assay [2], 99%; in assay [3], 45%; in assay [4], 73%. In addition, the inhibition at 1 µM on 5-HT2A receptor is 99%. Besides, the “α1 [%]” value in assay [5] was 27%.
As to `O=S(=O)(NCC1CN(CCOc2cccc3ccccc23)C1)c1cc2ccc(Cl)cc2s1` [Compound 164, 6-Chloro-N-[[1-[2-(1-naphthyloxy)ethyl]azetidin-3-yl]methyl]-benzothiophene-2-sulphonamide], the inhibition at 1 µM was found to be 83% in assay [1]; 92% at 5-HT7 receptor; 94% on 5-HT6 receptor; 98% in assay [2]; 34% in assay [3]; 78% in assay [4]. For the same compound, on 5-HT2A receptor, the inhibition at 1 µM was determined as 102%. Besides, the “α1 [%]” value in assay [5] came to 13%.
With `O=S(=O)(NCC1CN(CCOc2cccc3ccccc23)C1)c1ccc2cc(Cl)ccc2c1` [Compound 165, 6-Chloro-N-[[1-[2-(1-naphthyloxy)ethyl]azetidin-3-yl]methyl]naphthalene-2-sulphonamide], the inhibition at 1 µM in assay [1] amounted to 87%; at 5-HT7 receptor it was 105%; at 5-HT6 receptor, 97%; in assay [2], 100%; in assay [3] it was 111%; in assay [4] it was 66%. Moreover, at 5-HT2A receptor, the inhibition at 1 µM was found to be 99%. Moreover, the “α1 [%]” value in assay [5] was determined as 15%.
For `Cc1c(S(=O)(=O)NCC2CN(CCOc3cccc4ccccc34)C2)sc2ccc(F)cc12` [Compound 166, 5-Fluoro-3-methyl-N-[[1-[2-(1-naphthyloxy)ethyl]azetidin-3-yl]methyl]benzothiophene-2-sulphonamide], the inhibition at 1 µM came to 78% in assay [1]; 97% at 5-HT7 receptor; 98% on 5-HT6 receptor; 101% in assay [2]; 32% in assay [3]; 82% in assay [4]. The inhibition at 1 µM at 5-HT2A receptor came out at 100%. In assay [5], the “α1 [%]” value was determined as 23%.
As to `Cc1c(S(=O)(=O)NCC2CN(CCOc3cccc4ccccc34)C2)sc2ccc(Cl)cc12` [Compound 167, 5-Chloro-3-methyl-N-[[1-[2-(1-naphthyloxy)ethyl]azetidin-3-yl]methyl]benzothiophene-2-sulphonamide], the inhibition at 1 µM in assay [1] amounted to 75%; at 5-HT7 receptor, 90%; on 5-HT6 receptor it was 94%; in assay [2] it was 97%; in assay [3] it was 31%; in assay [4] it was 60%. The inhibition at 1 µM on 5-HT2A receptor was determined as 95%. The “α1 [%]” value in assay [5] is given as 3%.
As for `O=S(=O)(NCC1CN(CCOc2cccc3ccccc23)C1)c1cccc2ccccc12` [Compound 168, N-[[1-[2-(1-Naphthyloxy)ethyl]azetidin-3-yl]methyl]naphthalene-1-sulphonamide], the inhibition at 1 µM in assay [1] came out at 79%; on 5-HT7 receptor, 92%; on 5-HT6 receptor it was 93%; in assay [2], 94%; in assay [3], 25%; in assay [4], 64%. Further, the inhibition at 1 µM on 5-HT2A receptor was 96%. The “α1 [%]” value in assay [5] was determined as 31%.
In the case of `Cn1ccc2cc(S(=O)(=O)NCC3CN(CCOc4cccc5ccccc45)C3)ccc21` [Compound 169, 1-Methyl-N-[[1-[2-(1-naphthyloxy)ethyl]azetidin-3-yl]methyl]indole-5-sulphonamide], the inhibition at 1 µM was found to be 84% in assay [1]; 93% at 5-HT7 receptor; 100% at 5-HT6 receptor; 100% in assay [2]; 75% in assay [3]; 84% in assay [4]. Further, at 5-HT2A receptor, the inhibition at 1 µM stood at 69%. For the same compound, the “α1 [%]” value in assay [5] is reported as 74%.
As to `Cn1ccc2c(S(=O)(=O)NCC3CN(CCOc4cccc5ccccc45)C3)cccc21` [Compound 170, 1-Methyl-N-[[1-[2-(1-naphthyloxy)ethyl]azetidin-3-yl]methyl]indole-4-sulphonamide], the inhibition at 1 µM in assay [1] stood at 90%; on 5-HT7 receptor, 104%; on 5-HT6 receptor, 93%; in assay [2], 98%; in assay [3], 93%; in assay [4], 79%. On 5-HT2A receptor, the inhibition at 1 µM was found to be 72%. Also, in assay [5], the “α1 [%]” value is 63%.
With `O=S(=O)(NCC1CN(CCOc2cccc3ccccc23)C1)c1csc2ccccc12` [Compound 171, N-[[1-[2-(1-Naphthyloxy)ethyl]azetidin-3-yl]methyl]benzothiophene-3-sulphonamide], the inhibition at 1 µM in assay [1] was found to be 92%; on 5-HT7 receptor, 94%; on 5-HT6 receptor, 96%; in assay [2], 99%; in assay [3], 44%; in assay [4] it was 72%. In addition, the inhibition at 1 µM on 5-HT2A receptor is 101%. Also, in assay [5], the “α1 [%]” value came out at 50%.
In the case of `O=S(=O)(NCC1CN(CCOc2cccc3ccccc23)C1)c1ccc(F)c(Cl)c1` [Compound 172, 3-Chloro-4-fluoro-N-[[1-[2-(1-naphthyloxy)ethyl]azetidin-3-yl]methyl]-benzenesulphonamide], the inhibition at 1 µM stood at 85% in assay [1]; 92% on 5-HT7 receptor; 96% on 5-HT6 receptor; 100% in assay [2]; 46% in assay [3]; 76% in assay [4]. Further, at 5-HT2A receptor, the inhibition at 1 µM came to 71%. The “α1 [%]” value in assay [5] is 40%.
Take `O=S(=O)(NCC1CN(CCOc2cccc3ccccc23)C1)c1ccc(F)c(F)c1` [Compound 173, 3,4-Difluoro-N-[[1-[2-(1-naphthyloxy)ethyl]azetidin-3-yl]methyl]-benzenesulphonamide]: the inhibition at 1 µM in assay [1] is 83%; on 5-HT7 receptor it was 105%; on 5-HT6 receptor, 91%; in assay [2], 99%; in assay [3], 50%; in assay [4], 59%. In addition, the inhibition at 1 µM on 5-HT2A receptor amounted to 73%. For the same compound, the “α1 [%]” value in assay [5] was 56%.
For the compound `O=S(=O)(NCC1CN(CCOc2cccc3c2OCCO3)C1)c1ccc2cc(Cl)ccc2c1` [Compound 174, 6-Chloro-N-[[1-[2-(2,3-dihydro-1,4-benzodioxin-5-yloxy)ethyl]azetidin-3-yl]methyl]naphthalene-2-sulphonamide], the inhibition at 1 µM in assay [1] came out at 91%; at 5-HT7 receptor it was 90%; on 5-HT6 receptor it was 64%; in assay [2], 22%; in assay [3], 20%; in assay [4] it was 25%. In addition, at 5-HT2A receptor, the inhibition at 1 µM was 44%. In assay [5], the “α1 [%]” value is on record as 15%.
Consider `Cc1c(S(=O)(=O)NCC2CN(CCOc3cccc4c3OCCO4)C2)sc2ccc(Cl)cc12` [Compound 175, 5-Chloro-N-[[1-[2-(2,3-dihydro-1,4-benzodioxin-5-yloxy)ethyl]azetidin-3-yl]methyl]-3-methyl-benzothiophene-2-sulphonamide], for which the inhibition at 1 µM is 75% in assay [1]; 92% at 5-HT7 receptor; 95% at 5-HT6 receptor; 78% in assay [2]; 19% in assay [3]; 68% in assay [4]. Besides, at 5-HT2A receptor, the inhibition at 1 µM was found to be 105%. In addition, the “α1 [%]” value in assay [5] is reported as 50%.
